The values below come from US7365099B2, “Animal body fat control” (Wisconsin Alumni Research Foundation, priority 2001, dated 2008).

Test [1] concerns lipoprotein lipase associated with 3T3-L1 adipocytes. As to the kind of experiment: Heparin-releasable lipoprotein lipase (LPL) activity in 3T3-L1 adipocyte cultures. As to conditions: for LPL activity (in words): CLA 100 μM, aspirin 100 μM. The class given is cell-based. The method, then:
Using the same model, the effects on LPL of aspirin and NDGA, as compared to CLA, were tested. 3T3-L1 preadipocytes were cultured as described. […] Briefly, 3T3-L1 preadipocytes were grown to confluence at 37° C. in Dulbecco's Modified Eagle's Medium (DMEM) with 10% fetal bovine serum (FBS). At two days post-confluence (designated “day 0”) cell differentiation was induced with a mixture of methylisobutylxanthine (0.5 mM), dexamethasone (0.25 μM), and insulin (1 μg/ml) in DMEM containing 10% FBS. On “day 2” this medium was replaced with DMEM medium containing 10% FBS and insulin only. On “day 4” and thereafter the medium was DMEM plus 10% FBS only; this medium was subsequently replaced with fresh medium at 2 day intervals.
First, aspirin was tested along with PGE2, which is the final product of cyclooxygenase. Cells were treated with testing compounds for 4 hours before harvesting at day 6 or 7 post differentiation. The concentration of CLA, aspirin, and PGE2 were 1×10^−4 M, 1×10^−4 M, and 1×10^−6 M respectively. […] All dishes (including control) contained the same concentration of albumin (1×10^−4 M) and ethanol (final concentration of 0.1%).
Heparin-releasable lipoprotein lipase (LPL) activity (EC 3.1.1.34, 10 U heparin/ml media for 1 hr at 37° C.) was measured as described. Nilsson-Ehle, P. and M. C. […] Protein was determined using Bio-Rad DC Protein assay kit.
In a next set of cell culture experiments, shown in FIG. 4, cells were treated with testing compounds for 20–24 hours at day 7 post differentiation. […] CLA was complexed with albumin, and aspirin and NDGA were dissolved in ethanol. All dishes including control contained the same concentration of albumin (1×10^−4 M) and ethanol (final concentration of 0.05%). Numbers are mean±S.E. (n=7–8, collected from 2 independent experiments).
Cells were treated with other known lipoxygenase inhibitors. Cells were treated with testing compounds for 20–24 hours at day 6 or 7 post differentiation. Based on the ED50 of these inhibitors, various doses were first tested. In FIG. 5A, the concentration of SHA, CLA, ETYA, indomethacin, NDGA and AA861 were 1×10^−3 M, 1×10^−4 M, 1×10^−4 M, 1×10^−4 M, 1×10^−5 M and 1×10^−6 M, respectively. In FIG. 5B, the cells were treated with the test compounds at 1×10^−4 M. CLA was complexed with albumin and others were dissolved in ethanol. All dishes including control contained the same concentration of albumin (1×10^−4 M) and ethanol (final concentration of 0.1%). Numbers are mean±S.E. (in FIG. 5A, n=7–8, collected from 2 independent experiments, in FIG. 5B, n=11–12, collected from 3 independent experiments). […] Indomethacin blocks both cyclooxygenase and lipoxygenase, the two primary enzymes in the arachidonic acid metabolic cascade.

A short description of test [2]: Food intake of mice on NDGA/CLA diets (Experiment 2). The class given is in vivo. As to conditions: male ICR mice. The method, then:
(§1) After a 5 day adaptation period, four-week-old weanling male ICR mice (Harlan Sprague-Dawley) were randomly separated into groups that were fed one of the treatment diets for 4 weeks. Mice were fed either a control diet (as in Experiment 1), or a diet supplemented with CLA (0.1%), NDGA (0.1% or 0.005%), or CLA (0.1%) with NDGA (0.1% or 0.005%). The lower level of NDGA was chosen based on the level used as an antioxidant in the food industry. Supplemental NDGA was added to diets at the expense of sugar. Diet was stored at −20° C. until use. Mice were housed individually in a windowless room with a 12-h light-dark cycle in strict accordance to guidelines established by the Research Animal Resources Center of University of Wisconsin-Madison. Diet and water, available ad libitum, were freshly provided three times per week.

The next test concerns 3T3-L1 adipocytes. The test is described as follows: Cellular triacylglyceride (TG) in 3T3-L1 adipocytes. It is filed as cell-based. Conditions: treated 20–24 hours. The method, then: Fat reduction by CLA is partly due to inhibition of lipoprotein lipase (LPL) in adipocytes, as has been previously shown using a 3T3-L1 adipocyte cell culture model. Using the same model, the effects on LPL of aspirin and NDGA, as compared to CLA, were tested. 3T3-L1 preadipocytes were cultured as described. Frost, S. C. and M. D. Lane, J. Biol. Chem. 260: 2646–2652(1985). Briefly, 3T3-L1 preadipocytes were grown to confluence at 37° C. in Dulbecco's Modified Eagle's Medium (DMEM) with 10% fetal bovine serum (FBS). At two days post-confluence (designated “day 0”) cell differentiation was induced with a mixture of methylisobutylxanthine (0.5 mM), dexamethasone (0.25 μM), and insulin (1 μg/ml) in DMEM containing 10% FBS. On “day 2” this medium was replaced with DMEM medium containing 10% FBS and insulin only. On “day 4” and thereafter the medium was DMEM plus 10% FBS only; this medium was subsequently replaced with fresh medium at 2 day intervals.
Cells were treated with other known lipoxygenase inhibitors. Cells were treated with testing compounds for 20–24 hours at day 6 or 7 post differentiation. Based on the ED50 of these inhibitors, various doses were first tested. In FIG. 5A, the concentration of SHA, CLA, ETYA, indomethacin, NDGA and AA861 were 1×10^−3 M, 1×10^−4 M, 1×10^−4 M, 1×10^−4 M, 1×10^−5 M and 1×10^−6 M, respectively. […]

The nature of test [3]: Body weights of mice on NDGA/CLA diets (Experiment 2, FIG. 2). The class given is in vivo. Conditions: male ICR mice, 0.1% CLA and/or 0.1% NDGA. The protocol:
as §1

The mark [4] stands for this setting: diet with 0.1% CLA and/or 0.1% NDGA, mean±S.E., N=5–6.

As to Conjugated linoleic acid [CLA], the “LPL activity (in words)” value in test [1] (FIG. 3, treated 4 hours, day 6 or 7 post differentiation, PGE2 1 μM) is on record as “significantly decreased LPL activity”. Moreover, the “LPL activity (in words)” value in test [1] (FIG. 4, treated 20–24 hours at day 7 post differentiation, NDGA 50 μM) is on record as “significantly reduced LPL activity”. In addition, the “potency in reducing LPL (rank order, in words)” value in test [1] (FIG. 5B, 20–24 hours, all test compounds at 100 μM) was “AA861>NDGA>ETYA>Indomethacin>CLA”. Further, the “food intake compared to control (in words)” value in test [2] (0.1% CLA, with or without 0.1% NDGA) was “reduced food intake only at week 3”. In addition, the “food intake, Total” value in test [2] (4 weeks diet with 0.1% CLA and/or 0.1% NDGA, mean±S.E., N=5–6) is 136.6 ± 1.2 g/mouse. For the same substance, in test [2] (setting [4]), the “food intake, Week 1” value turned out to be 34.5 ± 0.3 g/mouse and the “food intake, Week 4” value is recorded as 32.4 ± 0.7 g/mouse. For the same substance, the “amount of cellular triacylglyceride (TG) (in words)” value in the test on 3T3-L1 adipocytes is “reduced”. Also, the “body weights (in words)” value in test [3] is listed as “no difference in body weights”.
